Assay results: the Kinase Knowledgebase extract (Sharma et al. 2016)

Molecular target: CDK2 (UniProt P24941)
Experiment: Enzyme Assay

`CCN(CCO)c1cc(-n2cnc(Nc3ccccc3)n2)ccn1` and `CCCN(CCO)c1cc(-n2cnc(Nc3ccccc3)n2)ccn1` cannot be ordered by Ki: less than 500 nM for the first, less than 500 nM for the second.

Going from `N#CCC(=O)N1CCCN(c2cc(-n3cnc(Nc4ccccc4)n3)ccn2)CC1` to `CCC(=O)N1CCCN(c2cc(-n3cnc(Nc4ccccc4)n3)ccn2)CC1`, the Ki rises from less than 500 nM to greater than 1000 nM. The first binds more tightly here.

First: c1ccc(-n2cnc(Nc3ccc(N4CCOCC4)nc3)n2)cc1
Second: c1ccc(-n2cnc(Nc3ccnc(N4CCOCC4)c3)n2)cc1
The Ki of the first is higher: greater than 1000 nM for the first, 500 to 1000 nM for the second. The second binds more tightly here.

`CCNC(=O)Nc1ccc(Nc2ncn(-c3ccnc(N4C[C@@H](C)N(C(C)=O)[C@@H](C)C4)c3)n2)cc1` and `CCCNC(=O)Nc1ccc(Nc2ncn(-c3ccnc(N4C[C@@H](C)N(C(C)=O)[C@@H](C)C4)c3)n2)cc1` cannot be ordered by Ki: less than 500 nM for the first, less than 500 nM for the second.

`CC(=O)N1[C@H](C)CN(c2cc(-n3cnc(Nc4ccc(NC(=O)OC(C)C)cc4)n3)ccn2)C[C@@H]1C` and `CC(=O)N1[C@H](C)CN(c2cc(-n3cnc(Nc4ccc(NC(=O)OCC(C)C)cc4)n3)ccn2)C[C@@H]1C` fall in the same range of Ki: 500 to 1000 nM for the first, 500 to 1000 nM for the second.

`COCC(=O)N1CCCN(c2cc(-n3cnc(Nc4ccccc4)n3)ccn2)CC1` and `CCCC(=O)N1CCCN(c2cc(-n3cnc(Nc4ccccc4)n3)ccn2)CC1` cannot be ordered by Ki: greater than 1000 nM for the first, greater than 1000 nM for the second.

First: O=C(CC1CCCC1)Nc1cc(-n2cnc(Nc3ccccc3)n2)ccn1
Second: O=C(Nc1cc(-n2cnc(Nc3ccccc3)n2)ccn1)C1CCCCC1
The Ki of the first is higher: greater than 1000 nM for the first, 500 to 1000 nM for the second. The second binds more tightly here.

First: CC(=O)N1CCCN(c2cc(-n3cnc(Nc4ccccc4)n3)ccn2)CC1
Second: CC(C)C(=O)N1CCCN(c2cc(-n3cnc(Nc4ccccc4)n3)ccn2)CC1
The Ki of the first is lower: 500 to 1000 nM for the first, greater than 1000 nM for the second.

First: CN(C)CCCN(C)c1cc(-n2cnc(Nc3ccccc3)n2)ccn1
Second: CN(CCO)c1cc(-n2cnc(Nc3ccccc3)n2)ccn1
The Ki of the first is higher: greater than 1000 nM for the first, less than 500 nM for the second. The second binds more tightly here.

`CC(=O)N1CCCN(c2cc(-n3cnc(Nc4ccccc4)n3)ncn2)CC1` and `CC(C)CC(=O)N1CCCN(c2cc(-n3cnc(Nc4ccccc4)n3)ccn2)CC1` cannot be ordered by Ki: greater than 1000 nM for the first, greater than 1000 nM for the second.

`CC(=O)N1[C@H](C)CN(c2cc(-n3cnc(Nc4ccc(N5CCN(C(=O)OC(C)(C)C)CC5)cc4)n3)ccn2)C[C@@H]1C` and `CC(=O)N1[C@H](C)CN(c2cc(-n3cnc(Nc4ccc(N5CCOCC5)cc4)n3)ccn2)C[C@@H]1C` cannot be ordered by Ki: less than 500 nM for the first, less than 500 nM for the second.

First: CC(=O)N1[C@H](C)CN(c2cc(-n3cnc(Nc4ccc(NC(=O)c5cccs5)cc4)n3)ccn2)C[C@@H]1C
Second: CC(=O)N1[C@H](C)CN(c2cc(-n3cnc(Nc4ccc(NC(=O)c5ccco5)cc4)n3)ccn2)C[C@@H]1C
The Ki of the first is lower: less than 500 nM for the first, 500 to 1000 nM for the second. The first binds more tightly here.

`c1ccc(-n2cnc(Nc3ccc(N4CCOCC4)cc3)n2)cc1` and `CCOc1ccc(Nc2ncn(-c3ccccc3)n2)cc1` cannot be ordered by Ki: greater than 1000 nM for the first, greater than 1000 nM for the second.

`CC1CCCN1c1cc(-n2cnc(Nc3ccccc3)n2)ccn1` (stereo not given) and `OC[C@H]1CCCN(c2cc(-n3cnc(Nc4ccccc4)n3)ccn2)C1` cannot be ordered by Ki: less than 500 nM for the first, less than 500 nM for the second.

`CN(Cc1cccnc1)c1cc(-n2cnc(Nc3ccccc3)n2)ccn1` and `CN(Cc1ccccc1)c1cc(-n2cnc(Nc3ccccc3)n2)ccn1` cannot be ordered by Ki: less than 500 nM for the first, less than 500 nM for the second.

First: CCOC(=O)c1ccc(Nc2ncn(-c3ccnc(N4C[C@@H](C)N(C(C)=O)[C@@H](C)C4)c3)n2)cc1
Second: CCOC(=O)Nc1ccc(Nc2ncn(-c3ccnc(N4C[C@@H](C)N(C(C)=O)[C@@H](C)C4)c3)n2)cc1
The Ki of the first is higher: 500 to 1000 nM for the first, less than 500 nM for the second.

`CCCOC(=O)Nc1ccc(Nc2ncn(-c3ccnc(N4C[C@@H](C)N(C(C)=O)[C@@H](C)C4)c3)n2)cc1` and `COC(=O)Nc1ccc(Nc2ncn(-c3ccnc(N4C[C@@H](C)N(C(C)=O)[C@@H](C)C4)c3)n2)cc1` cannot be ordered by Ki: less than 500 nM for the first, less than 500 nM for the second.

Compared with `CC(=O)N1[C@H](C)CN(c2cc(-n3cnc(Nc4ccc(N5CCN(S(=O)(=O)c6ccc(C)cc6)CC5)cc4)n3)ccn2)C[C@@H]1C`, `CC(=O)N1[C@H](C)CN(c2cc(-n3cnc(Nc4ccc(N)cc4)n3)ccn2)C[C@@H]1C` is lower in Ki: 500 to 1000 nM for the first, less than 500 nM for the second. The second binds more tightly here.

`CC(C)CCN(C)c1cc(-n2cnc(Nc3ccccc3)n2)ccn1` and `COCCN(C)c1cc(-n2cnc(Nc3ccccc3)n2)ccn1` cannot be ordered by Ki: less than 500 nM for the first, less than 500 nM for the second.

`c1ccc(Nc2ncn(-c3ccnc(N4CCCCCC4)c3)n2)cc1` and `c1ccc(Nc2ncn(-c3ccnc(N4CCCCCCC4)c3)n2)cc1` cannot be ordered by Ki: less than 500 nM for the first, less than 500 nM for the second.

First: CN1C(C)(C)CC(Nc2cc(-n3cnc(Nc4ccccc4)n3)ccn2)CC1(C)C
Second: c1ccc(Nc2ncn(-c3ccnc(NC4CCCCC4)c3)n2)cc1
The Ki of the first is higher: 500 to 1000 nM for the first, less than 500 nM for the second.

`CCOc1cccc(Nc2ncn(-c3ccccc3)n2)c1` and `CC(C)Oc1cccc(Nc2ncn(-c3ccccc3)n2)c1` cannot be ordered by Ki: greater than 1000 nM for the first, greater than 1000 nM for the second.

`CCN(CC)CCNc1cc(-n2cnc(Nc3ccccc3)n2)ccn1` and `CC(C)(C)CC(=O)Nc1cc(-n2cnc(Nc3ccccc3)n2)ccn1` cannot be ordered by Ki: greater than 1000 nM for the first, greater than 1000 nM for the second.

First: CC(=O)N1[C@H](C)CN(c2cc(-n3cnc(Nc4ccc(NC(=O)NC(C)C)cc4)n3)ccn2)C[C@@H]1C
Second: CC(=O)N1[C@H](C)CN(c2cc(-n3cnc(Nc4ccc(NC(=O)NC(C)(C)C)cc4)n3)ccn2)C[C@@H]1C
The Ki of the first is lower: less than 500 nM for the first, 500 to 1000 nM for the second. The first binds more tightly here.

Compared with `c1ccc(Nc2ncn(-c3ccnc(N4CCCCC4)c3)n2)cc1`, `O=C(C1CCCO1)N1CCN(c2cc(-n3cnc(Nc4ccccc4)n3)ccn2)CC1` (stereo not given) is higher in Ki: less than 500 nM for the first, greater than 1000 nM for the second.

Compared with `COc1cc(Nc2ncn(-c3ccccc3)n2)cc(OC)c1OC`, `COc1cc(Nc2ncn(-c3ccc(C#N)cc3)n2)cc(OC)c1OC` is lower in Ki: greater than 1000 nM for the first, 500 to 1000 nM for the second. The second binds more tightly here.

`c1ccc(-n2cnc(Nc3ccc4c(c3)OCCO4)n2)cc1` and `c1ccc(-n2cnc(Nc3ccnc(NCCN4CCOCC4)c3)n2)cc1` cannot be ordered by Ki: greater than 1000 nM for the first, greater than 1000 nM for the second.

`C[C@@H]1CN(c2cc(-n3cnc(Nc4ccccc4)n3)ncn2)C[C@H](C)N1` and `CC(=O)N1[C@H](C)CN(c2cc(-n3cnc(Nc4ccccc4)n3)ncn2)C[C@@H]1C` cannot be ordered by Ki: greater than 1000 nM for the first, greater than 1000 nM for the second.

Compared with `O=c1[nH]c2ccccc2n1C1CCN(c2cc(-n3cnc(Nc4ccccc4)n3)ccn2)CC1`, `O=C(Cc1ccccc1)Nc1cc(-n2cnc(Nc3ccccc3)n2)ccn1` is lower in Ki: greater than 1000 nM for the first, less than 500 nM for the second. The second binds more tightly here.

First: CCOC(=O)c1ccc(Nc2ncn(-c3ccnc(N4CCCN(C(C)=O)CC4)c3)n2)cc1
Second: CC(=O)N1[C@H](C)CN(c2cc(-n3cnc(Nc4ccc(NC(=O)OCC(C)(C)C)cc4)n3)ccn2)C[C@@H]1C
The Ki of the first is higher: greater than 1000 nM for the first, 500 to 1000 nM for the second. The second binds more tightly here.

First: CC(=O)N1[C@H](C)CN(c2cc(-n3cnc(Nc4ccc(NC(=O)C(F)(F)F)cc4)n3)ccn2)C[C@@H]1C
Second: CC(=O)N1[C@H](C)CN(c2cc(-n3cnc(Nc4ccc(NC(=O)N(C)C)cc4)n3)ccn2)C[C@@H]1C
The Ki of the first is lower: less than 500 nM for the first, greater than 1000 nM for the second.

First: O=C(CCc1ccccc1)Nc1cc(-n2cnc(Nc3ccccc3)n2)ccn1
Second: CC(=O)N1[C@H](C)CN(c2cc(-n3cnc(Nc4ccccc4)n3)ccn2)C[C@@H]1C
The Ki of the first is higher: 500 to 1000 nM for the first, less than 500 nM for the second.

With `CN1CCN(c2ccc(Nc3ncn(-c4ccccc4)n3)cn2)CC1` the Ki was greater than 1000 nM.
